pIC50: −log10 of the molar value. In brackets after ≈: the same amount, converted by molar mass.
Tests used:
[1] = tested on: MDCK (dog kidney) cells; test: Toxicity TC50 of the samples in MDCK cells (influenza screening); details: concentration of 50% toxicity, given as dilution of the stock solution
[2] = target: T1, HIV-1 integrase (HIV-1 IN) (Human immunodeficiency virus type 1 group M subtype B, UniProt P04585); test: Screening for the activity against HIV-1 integrase; type: biochemical; details: for inhibition at 100 µg/mL: initial concentration 100 μg/ml, read-out: IC50
T1 construct: a purified HIV-1 integrase was added into each well; purchased
Description: Principle of the test: A synthetic oligonucleotide of 30 nt was used as the donor substrate. A synthetic oligonucleotide of 20 nt was used as the target substrate. A 96-well plate was covered by the donor substrate, and a purified HIV-1 integrase was added into each well. ELISA was performed to measure the product of the target DNA chain transfer. A biotin-labeled alkali phosphatase was used to visual the system. OD value was measured by an Enzyme-linked Detector. Add a sample into the reaction system for screening the inhibitor of the enzyme.
1. HIV-1 IN: commercially available.
2. Treatment of the samples: Before use, the sample was dissolved in water or DMSO at a suitable concentration, then serially diluted (5×), four serial dilutions per sample. The stock solutions of two samples were 100-fold diluted with DMSO, then 5-fold diluted, four serial dilutions per sample. Positive control: S-y, provided by Shanghai Organic Chemistry Institute.
3. The donor substrate and target substrate: synthesized by Shanghai Biological Engineering Company (Shanghai Shenggong).
4. Methods: The diluted sample was added into a 96-well plate covered by the donor substrate, and then added into the reaction buffer containing the genetic engineered target enzyme and biotin-target substrate, incubated in the optimal reaction conditions. A biotin-labeled alkali phosphatase was used to visual the system to determine the absorbance at 450 nm (OD450).

[3] = tested on: MCF-7 human mammary adenocarcinoma; test: In vitro anti-tumor IC50 (MTT), MCF-7; type: cell-based; details: Homo sapiens, MCF7; Table 4; read-out: IC50 (ug/ml) against tumor cell lines, MCF
Description: (1) Single cell suspension was seeded into 96-well plates (the cells was diluted in the PRMI-1640 minimum medium to 3×10^4 cells/ml, […] diluted cells/well). […] The experiments were performed in quadruplicate.
(2) The medium was removed. Solutions of the anti-tumor agents (50 compounds) were prepared in a freshly prepared medium at serial concentrations. […] of the solution was added into each well. Incubation was continued for 48 hours.
(3) 20 ug of 2 mg/ml MTT was added into each well, and incubated for 4 hours.
(4) The medium was removed from the well. The microplates were swiftly turned down to throw-off the medium. […] of DMSO was added into each well, and vortexed at room temperature for 10 minutes.
(5) OD value (λ=570 nm) was measured with an Enzyme-Linked Detector.
(6) The graph of cell vitality was plotted, and IC50 was calculated.

C=C1CC2(OC(=O)C(C)C)OC3(CC2C(C)C)C(C)CCC13 (stereo not shown) [Compound 3, Curcumol isobutyrate]
TC50 [1]: 1/8403 of the stock solution
pIC50 [2]: 3.93

CC(C)C1CC23OC1(O)C/C(=C\Nc1ccc(O)cc1)C2CCC3C (stereo not shown) [Compound 5, Curcumol p-hydroxy aniline]
IC50 [3]: 1 µg/mL (≈ 2.91 µM)
inhibition at 100 µg/mL [2]: < 50%

CC(C)C1CC23OC1(O)CC(=CN1CCNCC1)C2CCC3C (stereo not shown) [Compound 7, Curcumol piperazine]
IC50 [3]: 3.2 µg/mL (≈ 9.99 µM)
inhibition at 100 µg/mL [2]: < 50%

CC(C)C1CC23OC1(O)CC(=CBr)C2CCC3C (stereo not shown) [Compound 17, Curcumol monobromide]
IC50 [3]: 4.63 µg/mL
inhibition at 100 µg/mL [2]: < 50%

C=C1CC2(OS(=O)(=O)O)OC3(CC2C(C)C)C(C)CCC13 (stereo not shown) [Compound 20, Curcumol sulfonate]
IC50 [3]: 4.98 µg/mL
pIC50 [2]: 3.90

— patent publication US7700584B2 (Hangzhou Minsheng Pharmaceuticals Co., Ltd., priority 2004, dated 2010)
